Results published in publication doi:10.1101/2025.05.30.657074, “A covalent recognition strategy enables conspecific mate identification” (bioRxiv, 2025).

Experiments:
BmOR1/Orco = BmOR1/Orco (Bombyx mori, UniProt Q5WA61); assay: GCaMP6 calcium flux assay, wild-type BmOR1/Orco; assay type: cell-based
Source text: (§1) The first insect pheromone system characterized at the molecular level is that of Bombyx mori, a moth long known to navigate towards its mate guided solely by pheromone cues with impressive navigation accuracy. Two PR/Orco complexes, BmOR1/BmOrco and BmOR3/BmOrco, have been linked to the behavioral responses to pheromones in B. mori (Figure 1A). The conspecific pheromone, bombykol, is detected through BmOR1/Orco and leads to sexual attraction. The heterospecific pheromone, bombykal, is sensed through BmOR3/Orco, and leads to suppression of mating behavior. We first characterized the extent to which both PR/Orco complexes are selective towards their cognate ligands. We used a previously established calcium flux functional assay where we co-transfected HEK293 cells with either BmOR1 or BmOR3, along with the coreceptor, BmOrco (here on referred to as Orco), and the fluorescent calcium reporter, GCaMP6 (Figure 1C). In this assay, ligand-activation of the heteromeric ion channel complexes by addition of either bombykol or bombykal leads to calcium influx, read out as GCaMP6 fluorescence changes that can be monitored in real-time and dose-dependent manner using a fluorescence plate reader. […] But we also found both PR/Orco complexes to be somewhat promiscuous: both complexes are activated by their non-cognate pheromones (bombykal for BmOR1/Orco and bombykol for BmOR3/Orco) with a response that is ~10 fold smaller than their cognate pheromones. […] Instead, two complexes with reciprocal specificities enable an unequivocal response to bombykal and bombykol across all concentrations, ensuring the behavioral accuracy needed for mate selection.
(§2) The assay was performed similarly to method descriptions in previous studies.
(§3) All DNA constructs used in this assay were cloned into a modified pME18 vector that contains a SV40 promotor.
(§4) Each transfection condition (per well) contained a total of 300 ng of plasmids in 1:1:1 ratio of the GCaMP6, Orco, and the corresponding OR plasmid that was diluted in 4.8 uL of OptiMEM (Gibco) along with 0.1 uL of P3000. The mixture was incubated for 5 minutes and then further incubated for 20 minutes after being mixed with Lipofectamine 3000 (Invitrogen) diluted in OptiMEM. This mixture was scaled accordingly to batch transfect 50-100 wells per construct per plate.
(§5) HEK293T cells were maintained at 37°C with 5% carbon dioxide and grown in high glucose DMEM enhanced with 10% FBS and 1% GlutaMAX (Gibco). Cells were detached with TrypLE Express Enzyme and resuspended in FluoroBrite DMEM (Gibco) with 10% FBS and 1% GlutaMAX (Gibco) to a concentration of 5 × 10^5 cells/ml. Cells were combined with each transfection condition and added to 2x16 wells of a 384-well plate (Grenier CELLSTAR). Cells were kept at 37°C for 18-20 hours before being used for fluorescence plate reading.
(§6) Odorant plates were prepared using D300e (Hewlett Packard), a digital, non-contact dispenser. Briefly, stock solutions of bombykol and bombykal were prepared in DMSO and plated onto 384-plates (Greiner, Catalog #784201) in a titrating volume to obtain a concentration series ranging between 316 nM and 100 mM with a final volume of 0.2 µL.
(§7) The odorant plates were kept at −20 °C until usage.
(§8) On the day of the GCaMP6 assay, Bravo (Agilent), a versatile liquid handler was used to prepare both the odorant plate and the assay plate (transfected cell plate) prior to the fluorescence readout using the FDSS/µcell kinetic plate Imager (Hamamatsu, C13299).
(§9) For the odorant plate, the DMSO dissolved stock solutions were diluted in 19.8 µL of Reading buffer (20 mM HEPES/NaOH (pH 7.4), 1× HBSS (Gibco), 3 mM Na2CO3, 1 mM MgSO4, and 5 mM CaCl2) to give a final concentration ranging from 3.16 nM to 1 mM with 1% DMSO. For the cell plate, the FluoroBrite DMEM (Gibco) was exchanged out with the […]
(§10) The kinetics of the fluorescence change upon odorant addition were measured using the FDSS/µcell kinetic plate Imager (Hamamatsu, C13299). […]

BmOR3/Orco = BmOR3/Orco (Bombyx mori, UniProt Q5FBE0); assay: GCaMP6 calcium flux assay, wild-type BmOR3/Orco; assay type: cell-based
BmOR3/Orco, sequence (Q5FBE0 entry or part of it): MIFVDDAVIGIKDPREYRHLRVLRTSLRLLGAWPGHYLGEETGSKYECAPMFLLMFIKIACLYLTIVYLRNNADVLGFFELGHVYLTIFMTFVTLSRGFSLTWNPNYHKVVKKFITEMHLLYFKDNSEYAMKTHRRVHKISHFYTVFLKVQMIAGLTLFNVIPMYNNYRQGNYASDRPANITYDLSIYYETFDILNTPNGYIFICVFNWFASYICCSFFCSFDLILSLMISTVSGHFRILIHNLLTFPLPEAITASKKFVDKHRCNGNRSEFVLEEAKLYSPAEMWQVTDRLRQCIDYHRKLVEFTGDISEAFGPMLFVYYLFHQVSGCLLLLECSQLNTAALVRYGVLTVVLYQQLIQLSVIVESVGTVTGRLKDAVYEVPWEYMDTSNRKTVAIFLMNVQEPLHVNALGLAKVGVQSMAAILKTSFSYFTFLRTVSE
BmOR3/Orco, sequence (Q7YT34 entry or part of it, further chain): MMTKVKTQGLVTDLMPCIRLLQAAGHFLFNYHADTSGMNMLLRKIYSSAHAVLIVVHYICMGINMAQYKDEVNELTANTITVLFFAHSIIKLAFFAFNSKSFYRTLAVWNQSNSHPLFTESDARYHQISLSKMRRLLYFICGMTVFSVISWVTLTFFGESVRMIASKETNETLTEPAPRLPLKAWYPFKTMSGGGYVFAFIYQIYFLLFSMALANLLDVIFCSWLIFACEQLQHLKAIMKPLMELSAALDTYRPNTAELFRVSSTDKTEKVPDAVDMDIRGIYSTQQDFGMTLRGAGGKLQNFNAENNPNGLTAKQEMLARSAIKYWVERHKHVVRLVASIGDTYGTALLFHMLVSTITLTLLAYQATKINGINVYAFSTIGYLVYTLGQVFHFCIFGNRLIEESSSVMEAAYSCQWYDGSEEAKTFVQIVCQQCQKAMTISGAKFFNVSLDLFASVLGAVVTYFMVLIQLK
Source text: as §1, §2, §3, §4, §5, §6, §7, §8, §9, §10

OR1_S60A = OR1_S60A (Bombyx mori, UniProt Q5WA61, S60A); assay: GCaMP6 calcium flux assay, BmOR1/Orco mutant S60A; assay type: cell-based
OR1_S60A, sequence (Q7YT34 entry or part of it, stated change not applied): as the sequence (Q7YT34 entry or part of it, further chain) above
OR1_S60A, sequence (Q5WA61 entry or part of it S60A): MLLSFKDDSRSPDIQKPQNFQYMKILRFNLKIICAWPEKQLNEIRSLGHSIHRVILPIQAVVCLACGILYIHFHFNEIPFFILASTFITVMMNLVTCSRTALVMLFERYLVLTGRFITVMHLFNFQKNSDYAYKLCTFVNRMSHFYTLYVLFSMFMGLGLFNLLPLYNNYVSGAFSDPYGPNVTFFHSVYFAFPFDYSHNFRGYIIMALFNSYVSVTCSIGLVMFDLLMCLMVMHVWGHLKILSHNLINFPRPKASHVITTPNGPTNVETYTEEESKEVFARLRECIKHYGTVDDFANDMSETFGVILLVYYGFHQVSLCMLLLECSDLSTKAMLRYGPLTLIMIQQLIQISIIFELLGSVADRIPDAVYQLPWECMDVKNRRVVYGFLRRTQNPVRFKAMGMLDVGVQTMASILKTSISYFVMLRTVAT
Source text: (§11) The first insect pheromone system characterized at the molecular level is that of Bombyx mori, a moth long known to navigate towards its mate guided solely by pheromone cues with impressive navigation accuracy. Two PR/Orco complexes, BmOR1/BmOrco and BmOR3/BmOrco, have been linked to the behavioral responses to pheromones in B. mori (Figure 1A). The conspecific pheromone, bombykol, is detected through BmOR1/Orco and leads to sexual attraction. The heterospecific pheromone, bombykal, is sensed through BmOR3/Orco, and leads to suppression of mating behavior. We first characterized the extent to which both PR/Orco complexes are selective towards their cognate ligands. We used a previously established calcium flux functional assay where we co-transfected HEK293 cells with either BmOR1 or BmOR3, along with the coreceptor, BmOrco (here on referred to as Orco), and the fluorescent calcium reporter, GCaMP6 (Figure 1C). In this assay, ligand-activation of the heteromeric ion channel complexes by addition of either bombykol or bombykal leads to calcium influx, read out as GCaMP6 fluorescence changes that can be monitored in real-time and dose-dependent manner using a fluorescence plate reader. […]
(§12) HEK293T cells were maintained at 37°C with 5% carbon dioxide and grown in high glucose DMEM enhanced with 10% FBS and 1% GlutaMAX (Gibco). […] Cells were kept at 37°C for 18-20 hours before being used for fluorescence plate reading. […]
as §8
(§13) For the odorant plate, the DMSO dissolved stock solutions were diluted in 19.8 µL of Reading buffer (20 mM HEPES/NaOH (pH 7.4), 1× HBSS (Gibco), 3 mM Na2CO3, 1 mM MgSO4, and 5 mM CaCl2) to give a final concentration ranging from 3.16 nM to 1 mM with 1% DMSO. […]
as §10

OR1_N93A = OR1_N93A (Bombyx mori, UniProt Q5WA61, N93A); assay: GCaMP6 calcium flux assay, BmOR1/Orco mutant N93A; assay type: cell-based
OR1_N93A, sequence (Q5WA61 entry or part of it N93A): as the sequence (Q5WA61 entry or part of it S60A) above, with A60S, N93A counted along it
OR1_N93A, sequence (Q7YT34 entry or part of it, stated change not applied, further chain): as the sequence (Q7YT34 entry or part of it, further chain) above
Source text: as §11, §12, §8, §13, §10

OR1_N93T = OR1_N93T (Bombyx mori, UniProt Q5WA61, N93T); assay: GCaMP6 calcium flux assay, BmOR1/Orco mutant N93T; assay type: cell-based
OR1_N93T, sequence (Q5WA61 entry or part of it N93T): as the sequence (Q5WA61 entry or part of it S60A) above, with A60S, N93T counted along it
OR1_N93T, sequence (Q7YT34 entry or part of it, stated change not applied, further chain): as the sequence (Q7YT34 entry or part of it, further chain) above
Source text: as §11, §12, §8, §13, §10

OR1_L340A = OR1_L340A (Bombyx mori, UniProt Q5WA61, L340A); assay: GCaMP6 calcium flux assay, BmOR1/Orco mutant L340A; assay type: cell-based
OR1_L340A, sequence (Q5WA61 entry or part of it L340A): as the sequence (Q5WA61 entry or part of it S60A) above, with A60S, L340A counted along it
OR1_L340A, sequence (Q7YT34 entry or part of it, stated change not applied, further chain): as the sequence (Q7YT34 entry or part of it, further chain) above
Source text: as §11, §12, §8, §13, §10

OR1_L342A = OR1_L342A (Bombyx mori, UniProt Q5WA61, L342A); assay: GCaMP6 calcium flux assay, BmOR1/Orco mutant L342A; assay type: cell-based
OR1_L342A, sequence (Q7YT34 entry or part of it, stated change not applied): as the sequence (Q7YT34 entry or part of it, further chain) above
OR1_L342A, sequence (Q5WA61 entry or part of it L342A): as the sequence (Q5WA61 entry or part of it S60A) above, with A60S, L342A counted along it
Source text: as §11, §12, §8, §13, §10

OR1_I343A = assay: GCaMP6 calcium flux assay, BmOR1/Orco mutant I343A; assay type: cell-based, Bombyx mori
Source text: as §11, with “We used a previously established calcium flux functional assay where we co-transfected HEK293 cells with either BmOR1 or BmOR3, along with the coreceptor, BmOrco (here on referred to as Orco), and the fluorescent calcium reporter, GCaMP6 (Figure 1C).” left out
as §12, §10

OR1_M344A = OR1_M344A (Bombyx mori, UniProt Q5WA61, M344A); assay: GCaMP6 calcium flux assay, BmOR1/Orco mutant M344A; assay type: cell-based
OR1_M344A, sequence (Q5WA61 entry or part of it M344A): as the sequence (Q5WA61 entry or part of it S60A) above, with A60S, M344A counted along it
OR1_M344A, sequence (Q7YT34 entry or part of it, stated change not applied, further chain): as the sequence (Q7YT34 entry or part of it, further chain) above
Source text: as §11, §12, §8, §13, §10

OR1_F161A = assay: GCaMP6 calcium flux assay, BmOR1/Orco mutant F161A; assay type: cell-based, Bombyx mori
Source text: as §11, with “We used a previously established calcium flux functional assay where we co-transfected HEK293 cells with either BmOR1 or BmOR3, along with the coreceptor, BmOrco (here on referred to as Orco), and the fluorescent calcium reporter, GCaMP6 (Figure 1C).” left out
as §12, §10

OR3_K58A = OR3_K58A (Bombyx mori, UniProt Q5FBE0, K58A); assay: GCaMP6 calcium flux assay, BmOR3/Orco mutant K58A; assay type: cell-based
OR3_K58A, sequence (Q5FBE0 entry or part of it K58A): as the sequence (Q5FBE0 entry or part of it) above, with K58A counted along it
OR3_K58A, sequence (Q7YT34 entry or part of it, stated change not applied, further chain): as the sequence (Q7YT34 entry or part of it, further chain) above
Source text: as §1, §2, §3, §4, §5, §6, §7, §8, §9, §10

OR3_K58S = OR3_K58S (Bombyx mori, UniProt Q5FBE0, K58S); assay: GCaMP6 calcium flux assay, BmOR3/Orco mutant K58S; assay type: cell-based
OR3_K58S, sequence (Q5FBE0 entry or part of it K58S): as the sequence (Q5FBE0 entry or part of it) above, with K58S counted along it
OR3_K58S, sequence (Q7YT34 entry or part of it, stated change not applied, further chain): as the sequence (Q7YT34 entry or part of it, further chain) above
Source text: as §1, §2, §3, §4, §5, §6, §7, §8, §9, §10

OR3_K58Q = OR3_K58Q (Bombyx mori, UniProt Q5FBE0, K58Q); assay: GCaMP6 calcium flux assay, BmOR3/Orco mutant K58Q; assay type: cell-based
OR3_K58Q, sequence (Q5FBE0 entry or part of it K58Q): as the sequence (Q5FBE0 entry or part of it) above, with K58Q counted along it
OR3_K58Q, sequence (Q7YT34 entry or part of it, stated change not applied, further chain): as the sequence (Q7YT34 entry or part of it, further chain) above
Source text: as §1, §2, §3, §4, §5, §6, §7, §8, §9, §10

OR3_T91A = OR3_T91A (Bombyx mori, UniProt Q5FBE0, T91A); assay: GCaMP6 calcium flux assay, BmOR3/Orco mutant T91A; assay type: cell-based
OR3_T91A, sequence (Q7YT34 entry or part of it, stated change not applied): as the sequence (Q7YT34 entry or part of it, further chain) above
OR3_T91A, sequence (Q5FBE0 entry or part of it T91A): as the sequence (Q5FBE0 entry or part of it) above, with T91A counted along it
Source text: as §11, §12, §8, §13, §10

OR3_T91N = OR3_T91N (Bombyx mori, UniProt Q5FBE0, T91N); assay: GCaMP6 calcium flux assay, BmOR3/Orco mutant T91N; assay type: cell-based
OR3_T91N, sequence (Q5FBE0 entry or part of it T91N): as the sequence (Q5FBE0 entry or part of it) above, with T91N counted along it
OR3_T91N, sequence (Q7YT34 entry or part of it, stated change not applied, further chain): as the sequence (Q7YT34 entry or part of it, further chain) above
Source text: as §11, §12, §8, §13, §10

B. mori male moths = system: B. mori male moths; parameters: method as in PMID 24744736, PMID 22836825; conditions: conspecific male moths; cited from earlier work

BmOR1/Orco, sequence (Q7YT34 entry or part of it): as the sequence (Q7YT34 entry or part of it, further chain) above
BmOR1/Orco, sequence (Q5WA61 entry or part of it): as the sequence (Q5WA61 entry or part of it S60A) above, with A60S counted along it

CCC/C=C\C=C\CCCCCCCCCO [Bombykol, bombykol]
EC50 (BmOR1/Orco; EC50, HEK293 cells co-transfected with BmOR1, BmOrco, GCaMP6): 270 nM
EC50 (BmOR1/Orco; Mean (-log EC50 ± SE), wild-type BmOR1/Orco): 269 nM
Hill Coefficient (n± SE) (BmOR1/Orco; wild-type BmOR1/Orco): 1.6 ± 0.1
Max (ΔF/F ± SE) (BmOR1/Orco; wild-type BmOR1/Orco, ΔF/F at highest ligand concentration): 0.98 ± 0.07 ΔF/F
EC50 (BmOR3/Orco; EC50, HEK293 cells co-transfected with BmOR3, BmOrco, GCaMP6): 1300 nM
EC50 (BmOR3/Orco; Mean (-log EC50 ± SE), wild-type BmOR3/Orco): 1290 nM
response to non-cognate pheromone, fold smaller than cognate pheromone (BmOR3/Orco; bombykol vs cognate bombykal at BmOR3/Orco): ~ 10 fold
Hill Coefficient (n± SE) (BmOR3/Orco; wild-type BmOR3/Orco): 1.0 ± 0.1
Max (ΔF/F ± SE) (BmOR3/Orco; wild-type BmOR3/Orco, ΔF/F at highest ligand concentration): 0.61 ± 0.04 ΔF/F
EC50 (OR1_S60A): 501 nM
Hill Coefficient (n± SE) (OR1_S60A; OR1_S60A): 2.1 ± 0.3
Max (ΔF/F ± SE) (OR1_S60A; OR1_S60A): 1.1 ± 0.1 ΔF/F
EC50 (OR1_N93A): 5010 nM
Hill Coefficient (n± SE) (OR1_N93A; OR1_N93A): 1.0 ± 0.3
Max (ΔF/F ± SE) (OR1_N93A; OR1_N93A): 0.63 ± 0.04 ΔF/F
EC50 (OR1_N93T): 1000 nM
Hill Coefficient (n± SE) (OR1_N93T; OR1_N93T): 2.0 ± 0.3
Max (ΔF/F ± SE) (OR1_N93T; OR1_N93T): 1.02 ± 0.08 ΔF/F
EC50 (OR1_L340A): 2000 nM
Hill Coefficient (n± SE) (OR1_L340A; OR1_L340A): 2.0 ± 0.3
Max (ΔF/F ± SE) (OR1_L340A; OR1_L340A): 0.48 ± 0.08 ΔF/F
EC50 (OR1_L342A): 794 nM
Hill Coefficient (n± SE) (OR1_L342A; OR1_L342A): 1.4 ± 0.2
Max (ΔF/F ± SE) (OR1_L342A; OR1_L342A): 0.87 ± 0.08 ΔF/F
Max (ΔF/F ± SE) (OR1_I343A): 0.14 ± 0.01 ΔF/F
EC50 (OR1_M344A): 1000 nM
Hill Coefficient (n± SE) (OR1_M344A; OR1_M344A): 1.5 ± 0.3
Max (ΔF/F ± SE) (OR1_M344A; OR1_M344A): 0.84 ± 0.03 ΔF/F
Max (ΔF/F ± SE) (OR1_F161A): 0.04 ± 0.02 ΔF/F
EC50 (OR3_K58A): 251 nM
Hill Coefficient (n± SE) (OR3_K58A; OR3_K58A): 15 ± 6
Max (ΔF/F ± SE) (OR3_K58A; OR3_K58A): 0.15 ± 0.06 ΔF/F
EC50 (OR3_K58S): 3160 nM
Hill Coefficient (n± SE) (OR3_K58S; OR3_K58S): 1.2 ± 0.3
Max (ΔF/F ± SE) (OR3_K58S; OR3_K58S): 0.42 ± 0.07 ΔF/F
EC50 (OR3_K58Q): 794 nM
Hill Coefficient (n± SE) (OR3_K58Q; OR3_K58Q): 5 ± 3
Max (ΔF/F ± SE) (OR3_K58Q; OR3_K58Q): 0.66± 0.06 ΔF/F
EC50 (OR3_T91A): 3980 nM
Hill Coefficient (n± SE) (OR3_T91A; OR3_T91A): 0.9 ± 0.3
Max (ΔF/F ± SE) (OR3_T91A; OR3_T91A): 0.31 ± 0.05 ΔF/F
EC50 (OR3_T91N): 1000 nM
Hill Coefficient (n± SE) (OR3_T91N; OR3_T91N): 1.7 ± 0.2
Max (ΔF/F ± SE) (OR3_T91N; OR3_T91N): 0.64 ± 0.07 ΔF/F
behavioral response (B. mori male moths): aggressive attraction behavior
